The source of these data is US20220183287A1, “METHODS FOR KILLING PESTS” (The United States of America, as represented by the …, priority 2020, published 2022).

“And” between values parts separate entries of the source, which are not always exact repeats. Equal entries are not always repeated. Marks after values point to notes of the source that are not given here.

The subject of one data set is M. incognita eggs. The data set can be described thus: Microwell assay: eggs immersed in compounds, hatch and activity of hatched J2. The data set is classed as in vivo, Meloidogyne incognita. Particulars: 0.1%; for % Active Day 2 / % Active Day 5 / % Active Day 7: J2 hatched from immersed eggs; for Hatch Day 2 / Hatch Day 5 / Hatch Day 7: hatched J2 per well, about 35 eggs per well. As for the experimental part: (§1) All chemicals were used without further purification.
(§2) These are reported as 0.1% herein.
(§3) The nematodes were then incubated at 26° C. […] Two trials were conducted for each assay.
(§4) The assumptions of the model were checked.

In another data set the test system is Heterodera glycines eggs. Described as above. The data set is classed as in vivo. The settings on record: 0.1%; for % Active Day 2 / % Active Day 5 / % Active Day 7: J2 hatched from immersed eggs; for Hatch Day 2 / Hatch Day 5 / Hatch Day 7: hatched J2 per well, about 35 eggs per well; for pest or weed control at 0.1 %: Heterodera glycines, 168 h, read-out: egg hatch suppression compared with the Tween control. The procedure:
as §1, §2, §3, §4

Data set [1] concerns M. incognita second-stage juveniles. The data set can be described thus: Microwell assay: previously hatched J2 immersed in compounds, activity and viability. Particulars: for % Active Day 1 / % Active Day 2: 0.1%, previously hatched J2 in aqueous solution; for viability at 0.1 % / mortality at 0.1 %: Meloidogyne incognita, 72 h; for viability at 0.1 %: read-out: % Viable Day 3 rinsed; for mortality at 0.1 %: read-out: nonviable (killed) J2. As for the experimental part:
Nematode cultures: As described in Meyer et al. (Meyer, S. L. F., et al., Nematropica, 46: 85-96 (2016)), M. incognita race 1 (originally isolated in Maryland) was maintained in a greenhouse (24° to 29° C.; natural and supplemental lighting combined for a 16-h daylength) on susceptible cayenne pepper (Capsicum annuum) TA-136′ plants. All greenhouse experiments described herein were conducted under the same conditions. Two to three months after pepper plant inoculation, egg masses were picked from roots. Eggs were separated by 5 min immersion in 0.6% sodium hypochlorite, followed by a rinse in sterile distilled water (SDW). To collect second-stage juveniles (J2) for microwell assays, the surface-sterilized eggs were placed in a hatching chamber (Spectra/Mesh Nylon Filter, openings 25-μm-diam.; Spectrum Laboratories Inc., Rancho Dominguez, Calif.) set in an autoclaved dish that was placed on a rotary shaker for 3 days at 35 rpm. For some M. incognita and H. glycines assays, 25 or […] kanamycin monosulfate (Phytotechnology Laboratories, Shawnee Mission, Kans.) was added to the hatching chamber to prevent growth of bacteria. The collected J2 were then rinsed with water to remove the kanamycin monosulfate.
(§5) Compounds for the studies were purchased from three different companies: methyl benzoate, CAS Number 93-58-3, ≥99% purity; Tween 20, CAS Number: 9005-64-5; Tween 80, CAS Number: 9005-65-6; ethyl benzoate, CAS Number: 93-89-0, natural, ≥99% purity, FCC, FG; vinyl benzoate, CAS Number: 769-78-8, ≥99% purity; n-propyl benzoate, CAS Number: 2315-68-6, 99% purity; n-butyl benzoate, CAS Number: 136-60-7, 99% purity; benzyl benzoate, CAS Number: 120-51-4, natural, ≥99% purity, FCC, FG; methyl 2-methylbenzoate, CAS Number: 89-71-4, 99% purity; methyl 2-chlorobenzoate, CAS Number: 610-96-8, ≥98% purity; methyl 2-methoxybenzoate, CAS Number: 606-45-1, 99% purity and methyl 2-nitrobenzoate, CAS Number: 606-27-9, 98% purity were purchased from Sigma-Aldrich (St. Louis, Mo.). Compounds, iso-butyl benzoate, CAS Number 120-50-3, >98% purity; n-pentyl benzoate, CAS Number: 2049-96-9, ≥98% purity; and n-hexyl benzoate, CAS Number: 6789-88-4, ≥98% purity were purchased from Alfa Aesar (Tewksbury, Mass.). The compounds methyl 3-methoxybenzoate (methyl m-anisate), CAS Number: 5368-81-0; 97% and methyl 3-methylbenzoate (methyl m-toluate), CAS Number: 99-36-5, 97% purity were purchased from TCI America (Portland, Oreg.). All chemicals were used without further purification. Deionized water (DI) containing 1% emulsifier (v/v), Tween 20 and Tween 80, at 1:1 ratio was used to make different VOCs (volatile organic compounds) water solutions and also used as blank control.
(§6) For tests with individual compounds, the concentration of each compound was 0.1% before placement into wells; the final concentration in the wells was 0.095% after addition to eggs or J2 suspended in water. These are reported as 0.1% herein. An exception was Trial 2, M. incognita J2 activity and viability (Table 2): the final concentration was 0.1% after placement in wells. Low concentrations were selected for assays of combined compounds to determine if the combinations would increase nematotoxicity.
(§7) Laboratory assays were conducted in 96-well polystyrene plates following general procedures described in Wen et al. (2019). Each well received approximately 35 J2 (for previously hatched J2 assays) or 35 eggs that each contained either a first-stage juvenile (J1) or a J2. The plates were covered with plastic adhesive sealing film (Excel Scientific, Inc., Victorville Calif.) and then with the plate lids. Parafilm (Bemis, Neenah, Wis.) was used to seal the plates. The nematodes were then incubated at 26° C. […] Following the counts on Day 2, the treatments were removed and the J2 rinsed twice with SDW and incubated in the second rinse. […] Two trials were conducted for each assay.

For data set [2], the system named is H. glycines second-stage juveniles. The data set is described as above. Particulars: for reduction in % viable J2 compared with the Tween control / % Active Day 1 / % Active Day 2: 0.1%; for reduction in % viable J2 compared with the Tween control: Day 3 following water rinse; for % Active Day 1 / % Active Day 2: previously hatched J2 in aqueous solution; for viability at 0.1 %: Heterodera glycines, 72 h, read-out: % Viable Day 3 rinsed. As for the experimental part:
The isolate of H. glycines race 3, originally isolated in Maryland, was maintained on soybean (Glycine max cv. ‘Essex’). As previously described (Wen, Y., et al. Plant Disease, 103: 2191-2198 (2019)), the roots were gently rubbed in water to dislodge cysts and mature females. The egg suspensions were then poured through nested sieves (#20 over /#60; pore sizes 850 μm and 250 μm diam., respectively) into a 454 g/liter sucrose solution. After 15 min, the cysts and females and cysts that floated to the top were collected, rinsed in water, and crushed with a rubber stopper on a #60 sieve (250-μm diam. pore size) that was partially submerged in distilled water. The egg suspension was washed through nested #230 over #500 sieves (pore sizes 63 μm and 25-μm diam., respectively). The eggs were collected in distilled water, and J2 hatched as described above.
as §5, §6, §7
Statistical analyses: The data were analyzed as either a general linear model using JMP or a generalized linear model for the best distribution to fit the residual using Proc Glimmix (Sas Institute). The assumptions of the model were checked. If not met, then appropriate statistical techniques were used so that data could met the assumptions of the models. In Sas, mean comparisons were done with Sidak adjusted p-values to hold the experiment-wise error at 0.05.

Take `COC(=O)c1ccccc1[N+](=O)[O-]` [M2NB, Methyl 2-nitrobenzoate]: the “decrease in total hatch compared with the Tween control” value in the data set with M. incognita eggs (Day 7) was “about 58%”. In addition, in the data set with M. incognita eggs, the “% Active Day 2” value is 29.5 ^b %, the “% Active Day 5” value is 15.2 ^d %, the “% Active Day 7” value is reported as 18.7 ^b % and the “Hatch Day 2” value is recorded as 5.0 ^bcd. In the data set on M. incognita eggs, the “Hatch Day 5” value is given as 12.1 ^b and the “Hatch Day 7” value is given as 19.5 ^b. The “% active J2 suppression compared with the Tween control” value in the data set with Heterodera glycines eggs (Day 7) was determined as 53%. Further, in the data set on Heterodera glycines eggs, the “% Active Day 2” value was 35.8 ^c %, the “% Active Day 5” value was 28.6 ^bcd %, the “% Active Day 7” value is listed as 25.3 ^bc % and the “Hatch Day 2” value is 9.1 ^abc. For the same molecule, in the data set on Heterodera glycines eggs, the “Hatch Day 5” value was 10.2 ^bc and the “Hatch Day 7” value is given as 10.0 ^bc. For the same molecule, in data set [1], the “% Active Day 1” value was 0 ^f %, the “% Active Day 2” value is on record as 0 ^d %, the viability at 0.1 % was 0% and the mortality at 0.1 % came to 100%. In data set [2], the “reduction in % viable J2 compared with the Tween control” value amounted to 51%, the “% Active Day 1” value is given as 54.2 ^c %, the “% Active Day 2” value is given as 34.1 ^de % and the viability at 0.1 % worked out at 30%.

Take `COC(=O)c1cccc(OC)c1` [M3MOB, Methyl 3-methoxybenzoate]: in the data set on M. incognita eggs, the “% Active Day 2” value was 0 ^c %, the “% Active Day 5” value is 0 ^e %, the “% Active Day 7” value was 0 ^c % and the “Hatch Day 2” value is reported as 2.0 ^cd. Also, in the data set on M. incognita eggs, the “Hatch Day 5” value was 2.7 ^de and the “Hatch Day 7” value was 2.8 ^de. Besides, in the data set with Heterodera glycines eggs, the “% Active Day 2” value was 0 ^e %, the “% Active Day 5” value is reported as 0 ^f %, the “% Active Day 7” value was 6.9 ^bc % and the “Hatch Day 2” value is 6.3 ^bcd. Further, in the data set with Heterodera glycines eggs, the “Hatch Day 5” value was 6.4 ^bcd and the “Hatch Day 7” value is 6.0 ^cd. Besides, the pest or weed control at 0.1 % in the data set with Heterodera glycines eggs (Day 7) amounted to 64%. For the same molecule, in data set [1], the “% Active Day 1” value was 0 ^f %, the “% Active Day 2” value is reported as 0 ^d %, the viability at 0.1 % came out at 0% and the mortality at 0.1 % was determined as 100%. In addition, in data set [2], the “% Active Day 1” value is listed as 12.2 ^d %, the “% Active Day 2” value is 10.4 ^g % and the viability at 0.1 % stood at 11.1%.

As for `CC(C)COC(=O)c1ccccc1` [iBB, iso-Butyl benzoate], the “decrease in % active J2 compared with the Tween control” value with M. incognita eggs (J2 hatched from eggs, 7-day incubation) is reported as 60%. Moreover, in the data set with M. incognita eggs, the “% Active Day 2” value is reported as 61.2 ^ab %, the “% Active Day 5” value was 51.6 ^bc %, the “% Active Day 7” value is listed as 38.0 ^b % and the “Hatch Day 2” value is 6.4 ^abc. In addition, in the data set with M. incognita eggs, the “Hatch Day 5” value is 7.2 ^bcd and the “Hatch Day 7” value is on record as 8.2 ^bcd. For the same molecule, in the data set on Heterodera glycines eggs, the “% Active Day 2” value is reported as 22.4 ^cd %, the “% Active Day 5” value is listed as 18.4 ^cde %, the “% Active Day 7” value is 13.6 ^bc % and the “Hatch Day 2” value was 6.7 ^bcd. Also, in the data set with Heterodera glycines eggs, the “Hatch Day 5” value is on record as 7.5 ^bcd and the “Hatch Day 7” value is on record as 7.3 ^bcd. Also, in data set [1], the “% Active Day 1” value is recorded as 54.8 ^ab %, the “% Active Day 2” value is listed as 41.1 ^b %, the viability at 0.1 % was found to be 42.9% and the mortality at 0.1 % was 52%. In data set [2], the “reduction in % viable J2 compared with the Tween control” value is given as 43%, the “% Active Day 1” value is 55.6 ^c %, the “% Active Day 2” value was 45.2 ^cd % and the viability at 0.1 % was 34.5%.

On to `CCCCOC(=O)c1ccccc1` [nBB, n-Butyl benzoate], for which, in the data set on M. incognita eggs, the “% Active Day 2” value is recorded as 17.1 ^b %; the “% Active Day 5” value is listed as 0 ^e %; the “% Active Day 7” value is 0% and 0 ^c %; the “Hatch Day 2” value is given as 3.3 ^cd. For the same molecule, in the data set on M. incognita eggs, the “Hatch Day 5” value is 4.1 ^cde and the “Hatch Day 7” value is listed as 4.6 ^de. For the same molecule, in the data set on Heterodera glycines eggs, the “% Active Day 2” value was 3.6 ^d %, the “% Active Day 5” value was 9.2 ^de %, the “% Active Day 7” value was 8.8 ^bc % and the “Hatch Day 2” value is listed as 5.2 ^cd. Moreover, in the data set on Heterodera glycines eggs, the “Hatch Day 5” value is 5.6 ^cd and the “Hatch Day 7” value was 5.4 ^cd. Also, the pest or weed control at 0.1 % in the data set with Heterodera glycines eggs (Day 7) fell in the range of 64 to 80%. Moreover, in data set [1], the “% Active Day 1” value is on record as 14.8 ^cd %, the “% Active Day 2” value is given as 5.8 ^c % and the viability at 0.1 % stood at 2.9%. In addition, the “nonviable (killed) J2” value in data set [1] (in vivo) was “killed most of the J2”. Besides, in data set [2], the “% Active Day 1” value is 52.7 ^c %, the “% Active Day 2” value is on record as 24.2 ^ef % and the viability at 0.1 % came out at 26.3%.

Turning to `CCCCCCOC(=O)c1ccccc1` [nHB, n-Hexyl benzoate], in the data set with M. incognita eggs, the “% Active Day 2” value is 73.2 ^ab %, the “% Active Day 5” value is 40.5 ^cd %, the “% Active Day 7” value is recorded as 16.5 ^b % and the “Hatch Day 2” value is listed as 11.6 ^ab. For the same molecule, in the data set with M. incognita eggs, the “Hatch Day 5” value is 13.0 ^b and the “Hatch Day 7” value was 13.0 ^bc. Also, in the data set with Heterodera glycines eggs, the “% Active Day 2” value was 19.1 ^cd %, the “% Active Day 5” value was 16.8 ^cde %, the “% Active Day 7” value is 14.6 ^bc % and the “Hatch Day 2” value is given as 7.3 ^bcd. In addition, in the data set with Heterodera glycines eggs, the “Hatch Day 5” value was 7.5 ^bcd and the “Hatch Day 7” value is recorded as 7.6 ^bcd. Besides, in data set [1], the “% Active Day 1” value is 84.5 ^a %, the “% Active Day 2” value was 82.4 ^c % and the viability at 0.1 % amounted to 66.3%. In addition, in data set [1] (in vivo), the “% Viable Day 3 rinsed” value is “did not have a significant effect”. Further, in data set [2], the “% Active Day 1” value is 73.2 ^ab %, the “% Active Day 2” value is 63.5 ^ab % and the viability at 0.1 % was determined as 46.2%.
